# Results as given in patent US7781590B2, “Piperidinylalkylcarbamate derivatives, methods for their preparation and the therapeutic use thereof as fatty acid amido hydrolase enzyme inhibitors” (Sanofi-Aventis, priority 2004, dated 2010).
# Counter-ions that a name gives are not always drawn.
# Tested on: not given
# Test: not given
# Details: not given
row,melting point,Structure (SMILES)
1,124 to 126 °C,"CNC(=O)COC(=O)NCCC1CCN(Cc2ncc(-c3ccc(Cl)cc3)o2)CC1 [Compound 105, 2-(methylamino)-2-oxoethyl 2-(1-{[5-(4-chlorophenyl)-1,3-oxazol-2-yl]methyl}piperidin-4-yl)ethylcarbamate]"
2,98 to 102 °C,"CNC(=O)COC(=O)NCCC1CCN(Cc2ccc(-c3ccc(F)cc3)cc2Cl)CC1 [Compound 27, 2-(methylamino)-2-oxoethyl 2-{1-[(3-chloro-4′-fluorobiphenyl-4-yl)methyl]piperidin-4-yl}ethylcarbamate]"
3,101 to 105 °C,"CNC(=O)COC(=O)NCCC1CCN(Cc2ccc(Cl)c(Cl)c2)CC1 [Compound 20, 2-(methylamino)-2-oxoethyl 2-{1-[(3,4-dichlorophenyl)methyl]piperidin-4-yl}ethylcarbamate]"
4,143 to 145 °C,"CNC(=O)COC(=O)NCCC1CCN(Cc2ccc(-c3ccc(F)cc3)cc2F)CC1 [Compound 26, 2-(methylamino)-2-oxoethyl 2-{1-[(3,4′-difluorobiphenyl-4-yl)methyl]piperidin-4-yl}ethylcarbamate]"
5,169 to 171 °C,"CNC(=O)COC(=O)NCCC1CCN(Cc2cc(-c3ccc(Cl)cc3)no2)CC1 [Compound 104, 2-(methylamino)-2-oxoethyl 2-(1-{[3-(4-chlorophenyl)isoxazol-5-yl]methyl}piperidin-4-yl)ethylcarbamate]"
6,114 to 116 °C,"CNC(=O)COC(=O)NCCC1CCN(Cc2cccc(Cl)c2Cl)CC1 [Compound 17, 2-(methylamino)-2-oxoethyl 2-{1-[(2,3-dichlorophenyl)methyl]piperidin-4-yl}ethylcarbamate]"
7,125 to 129 °C,"CNC(=O)COC(=O)NCCC1CCN(CCOc2ccc(F)cc2)CC1 [Compound 83, 2-(methylamino)-2-oxoethyl 2-(1-{2-[(4-fluorophenyl)oxy]ethyl}piperidin-4-yl)ethylcarbamate]"
8,124 to 126 °C,"CNC(=O)COC(=O)NCCC1CCN(Cc2cc(Cl)cc(Cl)c2)CC1 [Compound 21, 2-(methylamino)-2-oxoethyl 2-[1-(3,5-dichlorobenzyl)piperidin-4-yl]ethylcarbamate]"
9,169 to 171 °C,"CNC(=O)COC(=O)NCCC1CCN(C(C)c2cccc(OC(F)(F)F)c2)CC1 (centres unmarked) (as salt: HCl) [Compound 110, 2-(methylamino)-2-oxoethyl 2-(1-{1-[3-(trifluoromethoxy)phenyl]ethyl}piperidin-4-yl)ethylcarbamate]"
10,115 to 119 °C,CNC(=O)COC(=O)NC1CCN(CCOc2ccc(Cl)cc2Cl)CC1 [Compound 68]
11,79 to 81 °C,"CNC(=O)COC(=O)NCCC1CCN(Cc2cccc(Oc3ccc(F)cc3)c2)CC1 [Compound 103, 2-(methylamino)-2-oxoethyl 2-{1-[3-(4-fluorophenoxy)benzyl]piperidin-4-yl}ethylcarbamate]"
12,88 to 90 °C,"CNC(=O)COC(=O)NCCC1CCN(CCc2c(F)cccc2Cl)CC1 [Compound 60, 2-(methylamino)-2-oxoethyl 2-{1-[2-(2-chloro-6-fluorophenyl)ethyl]piperidin-4-yl}ethylcarbamate]"
13,116 to 120 °C,"CNC(=O)COC(=O)NCCC1CCN(Cc2ccc(C(F)(F)F)cc2)CC1 [Compound 14, 2-(methylamino)-2-oxoethyl 2-(1-{[4-(trifluoromethyl)phenyl]methyl}piperidin-4-yl)ethylcarbamate]"
14,117 to 119 °C,"CNC(=O)COC(=O)NCCC1CCN(Cc2ccc(Cl)cc2Cl)CC1 [Compound 18, 2-(methylamino)-2-oxoethyl 2-[1-(2,4-dichlorobenzyl)piperidin-4-yl]ethylcarbamate]"
15,125 to 127 °C,"CNC(=O)COC(=O)NCCC1CCN(Cc2cc(Cl)ccc2Cl)CC1 [Compound 19, 2-(methylamino)-2-oxoethyl 2-[1-(2,5-dichlorobenzyl)piperidin-4-yl]ethylcarbamate]"
16,90 to 92 °C,"CNC(=O)COC(=O)NCCC1CCN(Cc2cccc(C(F)(F)F)c2)CC1 [Compound 13, 2-(methylamino)-2-oxoethyl 2-(1-{[3-(trifluoromethyl)phenyl]methyl}piperidin-4-yl)ethylcarbamate]"
17,106 to 110 °C,"CNC(=O)COC(=O)NCCC1CCN(Cc2ccc(-c3ccccc3)cc2)CC1 [Compound 25, 2-(methylamino)-2-oxoethyl 2-[1-(biphenyl-4-ylmethyl)piperidin-4-yl]ethylcarbamate]"
18,118 to 120 °C,"CCOc1ccc(CCN2CCC(CCNC(=O)OCC(=O)NC)CC2)cc1 [Compound 59, 2-(methylamino)-2-oxoethyl 2-(1-{2-[4-(ethyloxy)phenyl]ethyl}piperidin-4-yl)ethylcarbamate]"
19,107 to 111 °C,"CNC(=O)COC(=O)NCCC1CCN(Cc2ccc(Br)cc2)CC1 [Compound 12, 2-(methylamino)-2-oxoethyl 2-{1-[(4-bromophenyl)methyl]piperidin-4-yl}ethylcarbamate]"
20,118 to 120 °C,"CNC(=O)COC(=O)NCCC1CCN(CCCc2ccc(OC)cc2)CC1 (as salt: HCl) [Compound 64, 2-(methylamino)-2-oxoethyl 2-(1-{3-[4-(methyloxy)phenyl]propyl}piperidin-4-yl)ethylcarbamate]"
21,132 to 134 °C,"CNC(=O)COC(=O)NCCC1CCN(Cc2cc(F)cc(C#N)c2)CC1 [Compound 102, 2-(methylamino)-2-oxoethyl 2-[1-(3-cyano-5-fluorobenzyl)piperidin-4-yl]ethylcarbamate]"
22,109 to 111 °C,"CNC(=O)COC(=O)NCCC1CCN(Cc2ccc(OC(F)(F)F)cc2)CC1 [Compound 16, 2-(methylamino)-2-oxoethyl 2-{1-[4-(trifluoromethoxy)benzyl]piperidin-4-yl}ethylcarbamate]"

row,Structure (SMILES),melting point
1,"CNC(=O)COC(=O)NCCC1CCN(Cc2cccc(OC(C)(C)C)c2)CC1 [Compound 122, 2-(methylamino)-2-oxoethyl 2-[1-(3-tert-butoxybenzyl)piperidin-4-yl]ethylcarbamate]",66 to 70 °C

# Biological target: T1, enzyme FAAH (fatty acid amide hydrolase) (Mus musculus, UniProt O08914)
# T1 construct: Membrane homogenates are prepared at the time of use by homogenizing the tissues in a Polytron; from tissue; host or cells: mouse brain (minus the cerebellum), membrane homogenate
# T1 sequence (O08914 1-579): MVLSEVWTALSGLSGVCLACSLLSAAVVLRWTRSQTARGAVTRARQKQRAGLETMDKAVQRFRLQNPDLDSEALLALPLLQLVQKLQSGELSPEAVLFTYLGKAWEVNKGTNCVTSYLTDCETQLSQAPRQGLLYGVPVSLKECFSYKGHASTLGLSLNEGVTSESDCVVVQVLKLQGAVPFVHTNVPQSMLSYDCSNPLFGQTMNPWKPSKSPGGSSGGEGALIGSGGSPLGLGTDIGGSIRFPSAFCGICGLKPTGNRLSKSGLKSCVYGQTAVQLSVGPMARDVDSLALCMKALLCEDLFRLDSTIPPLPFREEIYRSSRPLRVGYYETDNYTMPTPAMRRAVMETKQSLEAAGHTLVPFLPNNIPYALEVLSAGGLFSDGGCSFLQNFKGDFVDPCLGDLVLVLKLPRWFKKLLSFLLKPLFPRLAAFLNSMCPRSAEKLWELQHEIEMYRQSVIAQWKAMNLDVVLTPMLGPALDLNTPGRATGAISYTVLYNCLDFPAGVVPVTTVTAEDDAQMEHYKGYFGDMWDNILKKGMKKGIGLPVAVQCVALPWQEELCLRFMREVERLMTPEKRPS
# Test: radioenzymatic assay of FAAH inhibition (hydrolysis of anandamide [1-3H ethanolamine], mouse brain membrane homogenates)
# Type: biochemical
# Details: 10 μM anandamide, 15 minutes at 25° C., read-out: IC50 (concentration inhibiting by 50% the control enzymatic activity of FAAH)
# Experimental: The compounds of the invention were subjected to pharmacological tests allowing determination of their inhibitory effect on the enzyme FAAH (fatty acid amide hydrolase).
# Accordingly, mouse brains (minus the cerebellum) are removed and stored at −80° C. Membrane homogenates are prepared at the time of use by homogenizing the tissues in a Polytron in a 10 mM Tris-HCl buffer (pH 8.0) containing 150 mM NaCl and 1 mM EDTA. The enzymatic reaction is subsequently conducted in 70 μl of buffer containing bovine serum albumin without fatty acids (1 mg/ml). In succession the test compounds, at various concentrations, anandamide [1-^3H ethanolamine] (specific activity: 15-20 Ci/mmol) diluted to 10 μM with cold anandamide, and the membrane preparation (400 μg of frozen tissue per assay) are added. After 15 minutes at 25° C., the enzymatic reaction is terminated by adding 140 μl of chloroform/methanol (2:1). The mixture is stirred for 10 minutes and then centrifuged for 15 minutes at 3500 g. An aliquot (30 μl) of the aqueous phase containing the ethanolamine [1-^3H] is counted by liquid scintillation.
row,Structure (SMILES),IC50
1,CNC(=O)COC(=O)NCC1CCN(CCOc2ccc(Cl)cc2Cl)CC1 [Compound 77],49 nM
2,"CNC(=O)COC(=O)NCCC1CCN(Cc2ccc(-c3ccccc3)cc2)CC1 [Compound 25, 2-(methylamino)-2-oxoethyl 2-[1-(biphenyl-4-ylmethyl)piperidin-4-yl]ethylcarbamate]",225 nM

# Tested on: male OF1 mice
# Test: analgesia test: abdominal stretches induced by PBQ (phenylbenzoquinone)
# Type: in vivo
# Details: 10 mg/kg p.o. at 120 minutes
# Experimental: The in vivo activity of the compounds of the invention was evaluated in an analgesia test.
# Accordingly, intraperitoneal (i.p.) administration of PBQ (phenylbenzoquinone, 2 mg/kg in a 0.9% sodium chloride solution containing 5% of ethanol) to male OF1 mice weighing 25 to 30 g causes abdominal stretches, on average 30 twists or contractions during the period from 5 to 15 minutes after injection. The test compounds are administered orally (p.o.) or intraperitoneally (i.p.) in suspension in Tween 80 at 0.5%, 60 minutes or 120 minutes before the administration of PBQ.
row,Structure (SMILES),reduction of the number of stretches induced by PBQ
1,"CNC(=O)COC(=O)NCCC1CCN(Cc2ccc(-c3ccc(F)cc3)cc2F)CC1 [Compound 26, 2-(methylamino)-2-oxoethyl 2-{1-[(3,4′-difluorobiphenyl-4-yl)methyl]piperidin-4-yl}ethylcarbamate]",56%
